# Values of other authors, collected in patent US20250019715A1, “Ribosomal Biosynthesis Of Moroidin Peptides In Plants” (Whitehead Institute for Biomedical Research, priority 2021, published 2025).
# Ends that are not written are not given here.
# Columns and labels:
# [1] = test system: pain sensation; details: isolated as pain-causing agent from Dendrocnide moroides
# [2] = test system: tubulin polymerization; details: qualitative statement from prior knowledge
Compound,pain-causing activity [1],inhibitory activity against tubulin polymerization [2]
CC(C)C[C@@H]1NC(=O)[C@@H](NC(=O)[C@@H]2CCC(=O)N2)[C@@H](C(C)C)c2ccc3c4c([nH]c3c2)-n2cnc(c2)C[C@@H](C(=O)O)NC(=O)CNC(=O)[C@H](CCCN=C(N)N)NC(=O)[C@H](C4)NC(=O)[C@H](C(C)C)NC1=O [moroidin],pain-causing agent,potent inhibitory activity
"celogentin C (QLLVWPRH; bridge (positions not given here); also: bicyclic crosslinks, places not given here) [moroidin structural analog from Celosia argentea, core peptide QLLVWPRH]",,potent inhibitory activity
